pIC50: −log10 of the molar value.
Target: T1, human GPR84 receptor (Homo sapiens, UniProt Q9NQS5)
T1 construct: host or cells: HEK293, transient transfection
Experiment: Gαi biosensor BRET assay in HEK293 cells (antagonism of ZQ-16)
Format: cell-based
Settings: HEK293, single concentration 5 μM (designated D)
Source text: Background—The following assays can be used for determination of GPR84 activation in living HEK293 cells. The Gai BRET biosensor (Gagnon et al., 2018; Gales et al., 2006. Nat StructMol Biol. 13, 778-86; Saulieres et al., 2012. Nat Chem Biol. 8, 622-30) allows to directly monitor GPR84-mediated activation of Gai. The Gai biosensor consists of a Rluc8-tagged Gαi2 subunit, a GFP10-tagged Gγ2 subunit, and an untagged Gβ1. Agonist stimulation and GPR84 activation triggers a physical separation between the RLuc8-Gαi donor and the GFP10-Gγ2 acceptor, resulting in a decrease in BRET signal whose amplitude is correlated to ligand efficacy (Gales et al., 2006). Moreover, signaling functions of GPCRs are tightly regulated by endocytosis, the targeting of receptors to endosomes and their sorting to lysosomes or recycling to the plasma membrane. The early endosomes (EEs) trafficking assay (Namkung et al., 2016. Nat Commun. 7, 12178) uses Rluc8-tagged GPR84 and Renilla GFP (rGFP) attached to the FYVE domain from human endofin/zinc finger FYVE domain-containing protein 16, which binds phosphatidylinositol 3-phosphate in EEs. Agonist stimulation of GPR84-Rluc8 leads to trafficking of the receptor to EEs, and ensuing increase of the donor concentration relative to the rGFP-FYVE acceptor anchored in the same cellular compartment, and thus results in an increase in BRET signal.
Plasmids—The cDNA clones for human GPR84 receptor, human Gai2, Gp1, and Gy2 were obtained from the cDNA Resource Center (www.cdna.org). GFP10 (F64L, S147P, S202F and H231L variant of Aequorea victoria Green Fluorescent Protein) gBlocks gene fragments (Integrated DNA Technologies, IA) and linker were inserted in frame at the N-terminus of human Gγ2. Rluc8 (A55T, C124A, S130A, K136R, A143M, M185V, M253L, and S287L variant of the Renilla renformis luciferase) gBlocks gene fragment was inserted with linkers in frame in between residues 91 and 92 of Gai2 or at the C-terminus of GPR84. The FYVE domain from human endofin (residues Q739 to K806) attached in frame at the C terminus of a humanized Renilla GFP (rGFP), were synthesized as gBlocks gene fragments.
Bioluminescence Resonance Energy Transfer (BRET) Measurement—HEK293 cells were transfected with GPR84-Rluc8 and rGFP-FYVE for the EEs trafficking biosensor or with GPR84, Gαi2-Rluc8, GFP10-Gγ2, and Gβ1 for the Gαi biosensor. The following day, transiently transfected cells were seeded in 96-well white clear bottom microplates coated with poly-D-lysine and left in culture for 24 hours. Cells were washed once with Tyrode's buffer (140 mmol/L NaCl, 1 mmol/L CaCl2, 2.7 mmol/L KCl, 0.49 mmol/L MgCl2, 0.37 mmol/L NaH2PO4, 5.6 mmol/L glucose, 12 mmol/L NaHCO3, and 25 mmol/L HEPES, pH 7.5) before performing assays in Tyrode's buffer. Test compounds were incubated with cells for 5 (Gαi) or 15 (EEs) minutes at 37° C. before addition of 200 nmol/L of the GPR84 agonist ZQ-16 (2-(Hexylthio)-6-hydroxy-4(3H)-pyrimidinone) for 5 minutes at room temperature (Gαi) or 30 minutes at 37° C. (EEs). The Rluc8 substrate coelenterazine 400A (Prolume, Lakeside, AZ) was added at a final concentration of 5 μmol/L and BRET readings were collected using an Infinite M1000 microplate reader (Tecan, Morrisville, NC). BRET^2 readings between Rluc8 and GFP10 or rGFP were collected by sequential integration of the signals detected in the 370 to 450 nm (Rluc8) and 510 to 540 nm (GFP10, rGFP) windows. The BRET signal was calculated as the ratio of light emitted by acceptor (GFP10, rGFP) over the light emitted by donor (Rluc8). The values were corrected to net BRET by subtracting the background BRET signal obtained in cells transfected with Rluc8 constructs alone. Ligand-promoted net BRET values were calculated by subtracting vehicle-induced net BRET from ligand-induced net BRET.

T1 sequence (Q9NQS5 whole entry): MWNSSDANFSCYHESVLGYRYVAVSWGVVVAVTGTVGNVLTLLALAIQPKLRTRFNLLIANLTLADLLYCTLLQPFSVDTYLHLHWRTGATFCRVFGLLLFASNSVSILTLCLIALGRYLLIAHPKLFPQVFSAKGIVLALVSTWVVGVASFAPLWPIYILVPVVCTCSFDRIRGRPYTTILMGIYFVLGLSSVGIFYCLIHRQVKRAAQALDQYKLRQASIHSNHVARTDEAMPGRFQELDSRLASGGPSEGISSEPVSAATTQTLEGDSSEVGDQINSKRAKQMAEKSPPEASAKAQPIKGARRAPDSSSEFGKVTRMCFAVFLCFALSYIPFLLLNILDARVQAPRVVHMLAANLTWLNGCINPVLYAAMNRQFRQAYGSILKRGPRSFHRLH

Row | inhibition at 5 µM [%] | Structure (SMILES)
1 | ≤ 25 | Cc1c(-c2ccc(OCc3ccccc3)cc2)nnn1CC1CCCCO1 (stereo not drawn) [Compound I-46]

Same assay, conditions: HEK293, single concentration 10 μM (designated F)

Row | Structure (SMILES) | inhibition at 10 µM [%]
2 | Cc1cc(C#CC2CC2)ccc1-c1nnn(CC2CCCCO2)n1 (stereo not drawn) [Compound I-9] | ≤ 25
3 | Cc1cc(C#CC2CC2)ccc1-n1nc(CC2CCCCO2)oc1=O (stereo not drawn) [Compound I-12] | 25 to 50
4 | Cc1cc(C#CC2CC2)ccc1-n1nc(OC[C@H]2COCCO2)oc1=O [Compound I-13] | 25 to 50
5 | Cc1cc(C#CC2CC2)ccc1-c1nn(CC2CCCCO2)c(=O)o1 (stereo not drawn) [Compound I-15] | ≤ 25
6 | O=c1oc(CC2CCCCO2)nn1Cc1cccc(C#CC2CC2)c1 (stereo not drawn) [Compound I-18, 3-(3-(cyclopropylethynyl)benzyl)-5-((tetrahydro-2H-pyran-2-yl)methyl)-1,3,4-oxadiazol-2(3H)-one] | 50 to 75
7 | O=c1oc(CC2CCCCO2)nn1Cc1ccc(C#CC2CC2)cc1 (stereo not drawn) [Compound I-19] | > 75
8 | CCc1ccc(C#CC2CC2)cc1-n1nc(CC2CCCCO2)oc1=O (stereo not drawn) [Compound I-20] | > 75
9 | Cc1ccc(-c2ccc(-c3cn(C[C@H]4CCCCO4)nn3)nc2)cn1 [Compound I-32] | ≤ 25

Further lines, results first:

Row | inhibition at 10 µM [%] | Structure (SMILES)
10 | > 75 | Cc1ccc(C#CC2CC2)cc1[S+]([O-])c1cn(CC2OCC(C)(C)CO2)nn1 (racemic) [Compound I-782, (RS)-4-((5-(cyclopropylethynyl)-2-methylphenyl)sulfinyl)-1-((5,5-dimethyl-1,3-dioxan-2-yl)methyl)-1H-1,2,3-triazole]
11 | 50 to 75 | Cc1cc(N2CCC[C@@H](N(C)Cc3ccccc3)C2)ccc1-c1cn(C[C@H]2CCCCO2)nn1 (relative stereo) [Compound I-238]
12 | ≤ 25 | c1ccc(COc2ccc3c(c2)CCc2cn(CC4CCCCO4)nc2-3)cc1 (single isomer, unassigned) [Compound I-330]
13 | > 75 | Cc1cc(N2CCC[C@H](N(C)Cc3ccccc3)C2)ccc1-c1cn(C[C@H]2CCCCO2)nn1 (stereo in doubt) [Compound I-240]
14 | ≤ 25 | C(#CC1CC1)c1ccc2c(c1)CCn1nc(OC[C@H]3COCCO3)cc1-2 (stereo in doubt) [Compound I-332, 2-((1,4-dioxan-2-yl)methoxy)-8-(cyclopropylethynyl)-5,6-dihydropyrazolo[5,1-a]isoquinoline]
15 | ≤ 25 | C(#Cc1ccc(-c2cn(CC3CCCCO3)nn2)cc1)CC1CC1 (stereo not drawn) [Compound I-44]

Same assay, conditions: HEK293, single concentration 12.5 μM (designated G)

Row | inhibition at 12.5 µM [%] | Structure (SMILES)
16 | ≤ 25 | Cc1ccc(-c2ccc(-c3cn(C[C@H]4COCCO4)nn3)cc2)cn1 [Compound I-25]
17 | 25 to 50 | Cc1cc(C#CC2CC2)ccc1-c1nnn(C[C@H]2CCCCO2)c1C [Compound I-45]

Same assay, conditions: HEK293, single concentration 15 μM (designated H)

Row | inhibition at 15 µM [%] | Structure (SMILES)
18 | ≤ 25 | C(#Cc1ccc(-c2cn(CC3CCCCO3)nn2)cc1)CN1CCCCC1 (stereo not drawn) [Compound I-48]

Same assay, conditions: HEK293, single concentration 25 μM (designated I)

Row | Structure (SMILES) | inhibition at 25 µM [%]
19 | C(#CC1CC1)c1ccc(-c2nnn(CC3CCCCO3)n2)cc1 (stereo not drawn) [Compound I-1] | ≤ 25
20 | Cc1ccc(-c2ccc(-c3nnn(CC4CCCCO4)n3)cc2)cn1 (stereo not drawn) [Compound I-2] | ≤ 25
21 | C(#CC1CC1)c1ccc(-c2nnn(CC3COCCO3)n2)cc1 (stereo not drawn) [Compound I-3] | ≤ 25
22 | C(#CC1CC1)c1cccc(-c2nnn(CC3CCCCO3)n2)c1 (stereo not drawn) [Compound I-4] | 25 to 50
23 | Cc1ccc(-c2cccc(-c3nnn(C[C@H]4CCCCO4)n3)c2)cn1 [Compound I-5] | 25 to 50
24 | C(#CC1CC1)c1cccc(-c2nnn(CC3COCCO3)n2)c1 (stereo not drawn) [Compound I-6] | ≤ 25
25 | Cc1c(C#CC2CC2)cccc1-c1nnn(CC2CCCCO2)n1 (stereo not drawn) [Compound I-8] | ≤ 25
26 | O=c1oc(CC2COCCO2)nn1-c1ccc(C#CC2CC2)cc1 (stereo not drawn) [Compound I-10, 5-((1,4-dioxan-2-yl)methyl)-3-(4-(cyclopropylethynyl)phenyl)-1,3,4-oxadiazol-2(3H)-one] | ≤ 25
27 | O=c1oc(CC2CCCCO2)nn1-c1ccc(C#CC2CC2)cc1 (stereo not drawn) [Compound I-11] | 25 to 50
28 | C(#CC1CC1)c1ccc(-c2cn(C[C@H]3COCCO3)nn2)cc1 [Compound I-22] | ≤ 25
29 | C(#CC1CC1)c1ccc(-c2cn(C[C@H]3COc4ccccc4O3)nn2)cc1 [Compound I-23] | ≤ 25
30 | C(#CC1CC1)c1ccc(-c2cn(C[C@H]3CCCCO3)nn2)cc1 [Compound I-24] | > 75
31 | Cc1ccc(-c2ccc(-c3cn(C[C@H]4COc5ccccc5O4)nn3)cc2)cn1 [Compound I-26] | ≤ 25
32 | C(#CC1CC1)c1ccc(-c2cn(C[C@H]3CCCO3)nn2)cc1 [Compound I-27] | 25 to 50
33 | C(#CC1CC1)c1ccc(-c2cn(C[C@H]3CCCCO3)nn2)nc1 [Compound I-28] | 25 to 50
34 | Cc1c(-c2ccc(C#CC3CC3)cc2)nnn1C[C@H]1CCCCO1 [Compound I-29] | 50 to 75
35 | Cc1ccc(-c2ccc(-c3cn(C[C@H]4CCCO4)nn3)cc2)cn1 [Compound I-31] | ≤ 25

The next lines start with the values.

Row | inhibition at 25 µM [%] | Structure (SMILES)
36 | 25 to 50 | Cc1ccc(-c2cccc(-c3cn(C[C@H]4CCCCO4)nn3)c2)cn1 [Compound I-33]
37 | ≤ 25 | C(#CC1CC1)c1ccc(-c2cn(CC3CCCCO3)nn2)cn1 (stereo not drawn) [Compound I-35]
38 | 25 to 50 | Cc1ccc(-c2ccc(-c3cn(CC4CCCCO4)nn3)c(C)c2)cn1 (stereo not drawn) [Compound I-36]
39 | 50 to 75 | C(#CC1CC1)c1ccc(-c2cn(CC3CCCCO3)nn2)s1 (stereo not drawn) [Compound I-38]
40 | > 75 | Cc1ccc(-c2ccc(-c3cn(CC4CCCCO4)nn3)cc2)cn1 (stereo not drawn) [Compound I-39]
41 | 25 to 50 | C(#CC1CC1)c1ccc(-c2cn(CC3CCOCC3)nn2)cc1 [Compound I-40]
42 | ≤ 25 | C(#CC1CC1)c1ccc(-c2cn(CC3CCc4ccccc4O3)nn2)cc1 (stereo not drawn) [Compound I-41]
43 | ≤ 25 | CN(C)CC#Cc1ccc(-c2cn(CC3CCCCO3)nn2)cc1 (stereo not drawn) [Compound I-47]
44 | 25 to 50 | Cc1c(-c2ccc(OCc3ccccn3)cc2)nnn1CC1CCCCO1 (stereo not drawn) [Compound I-50]
45 | ≤ 25 | FC(F)(F)COc1ccc(-c2cn(CC3CCCCO3)nn2)cc1 (stereo not drawn) [Compound I-51]
46 | ≤ 25 | Cc1cc(OCc2ccccc2)ccc1-c1cn(CC2CCCCO2)nn1 (stereo not drawn) [Compound I-52]
47 | ≤ 25 | c1ccc(COc2ccc(-c3cn(CC4CCCCO4)nn3)cc2)cc1 (stereo not drawn) [Compound I-53]
48 | 50 to 75 | Cc1cc(OCc2ccccn2)ccc1-c1cn(CC2CCCCO2)nn1 (stereo not drawn) [Compound I-54]
49 | ≤ 25 | O=S1(=O)CCC(Cn2cc(-c3ccc(C#CC4CC4)cc3)nn2)CC1 [Compound I-56]
50 | ≤ 25 | CC(C)C#Cc1ccc(-c2cn(CC3CCCCO3)nn2)cc1 (stereo not drawn) [Compound I-57]
51 | ≤ 25 | CC(C)(C)C#Cc1ccc(-c2cn(CC3CCCCO3)nn2)cc1 (stereo not drawn) [Compound I-58]

Same assay, conditions: HEK293 cells, antagonism of 200 nmol/L ZQ-16

Row | Structure (SMILES) | pIC50
52 | C(#CC1CC1)c1cccc(-c2nnn(CC3CCCCO3)n2)c1 (stereo not drawn) [Compound I-4] | ≥ 6.52
53 | C(#CC1CC1)c1ccc(-c2cn(C[C@H]3CCCCO3)nn2)cc1 [Compound I-24] | < 5.52
54 | C(#CC1CC1)c1ccc(-c2cn(C[C@H]3CCCO3)nn2)cc1 [Compound I-27] | < 5.52

Further lines, results first:

Row | pIC50 | Structure (SMILES)
55 | 5.52 to 6.00 | Cc1cc(N2CCC[C@@H](N(C)Cc3ccccc3)C2)ccc1-c1cn(C[C@H]2CCCCO2)nn1 (relative stereo) [Compound I-238]
56 | 6.00 to 6.52 | c1ccc(COc2ccc3c(c2)CCc2cn(CC4CCCCO4)nc2-3)cc1 (single isomer, unassigned) [Compound I-330]
57 | < 5.52 | Cc1ccc(-c2ccc(-c3cn(CC4CCCCO4)nn3)c(C)c2)cn1 (stereo not drawn) [Compound I-36]
58 | < 5.52 | Cc1ccc(-c2ccc(-c3cn(CC4CCCCO4)nn3)cc2)cn1 (stereo not drawn) [Compound I-39]
59 | 6.00 to 6.52 | Cc1cc(OCc2ccccn2)ccc1-c1cn(CC2CCCCO2)nn1 (stereo not drawn) [Compound I-54]
60 | < 5.52 | Cc1cc(C#CC2CC2)ccc1-c1cn(CC2CCCO2)nn1 (stereo not drawn) [Compound I-60]
